Reference: patent US8426175B2, “Method for the production of a fermentation product from a pretreated lignocellulosic feedstock” (Iogen Energy Corporation, priority 2007, dated 2013)
Where two headings read alike, the source gives them in different places.

Key:
[1] = test system: Saccharomyces yeast; details: for impact on the viability of the yeast: 500 ppm or higher
Experimental: (§2) The yeast was concentrated by centrifugation (4 min, 4000 rpm) and resuspended in the original, contaminated supernatant to 20 g/L, 200 g/L or 300 g/L. Contamination was verified microscopically. The three slurries produced were cooled in an ice-water bath treated with either ClO2 at 0, 10, 50, 250, 500, 750 and 1000 ppm, serially diluted and plated on YM agar (3.0 g/L yeast extract, 3.0 g/L malt extract, 5 g/L peptone, 10 g/L glucose, 20 g/L agar)+chloramphenicol (34 μg/mL) plates for yeast and TSA (15 g/L pancreatic casein digest, 5 g/L enzymatic soy meal digest, 5 g/L NaCl, 15 g/L agar)+cycloheximide (0.05 μg/mL) plates for bacterial enumeration. Plates were incubated overnight at 30° C. and 37° C. for yeast and bacteria, respectively. Plates were counted the next day and bacterial colonies were verified microscopically.

[2] = test system: bacteria in contaminated yeast slurry; test: Bacterial enumeration on TSA + cycloheximide plates after ClO2 treatment of contaminated yeast slurry; assay type: cell-based
Experimental: as §2

[3] = test system: contaminated recombinant Saccharomyces cultures; test: Batch fermentation of xylose to ethanol inoculated with chlorine dioxide-treated, recycled yeast slurry; assay type: cell-based
Experimental: Saccharomyces cells from a frozen glycerol stock were used to inoculate 4 L of Sc Inoculation Medium (pH 6). The inoculum was grown with shaking at 160 rpm for 24 h at 30° C. The cells were harvested by centrifugation (4000 rpm for 5 min) and the entire cell pellet was resuspended in about 50 mL of the supernatant and this was used to inoculate 20 L of Sc Propagation Medium (pH 5.0). A fed-batch fermentation was run for 4 days with mild aeration of 56 slpm and 500 rpm agitation by mechanical stirring. The pH was maintained at 5.0 and the temperature was maintained at 30° C. for the first two days followed by 28° C. for the last two days. A 60 g/L glucose solution was fed to the vessel at a rate of 83.3 mL/h. The culture was sampled three times daily and the samples analyzed for cell growth, xylose and glucose. At the end of the fermentation, the entire broth was harvested and the cells concentrated by centrifugation (4000 rpm for 5 min in multiple 4 L Nalgene bottles). The cell pellets were resuspended to a concentration of 22.5 g cell mass/L. This was used to inoculate 10 L of Sc Fermentation Medium. Batch fermentation was run for 2-3 days with 1 slpm aeration, 250 rpm mechanical agitation. The pH was maintained at 6.0 and the temperature maintained at 28-30° C. The culture was sampled three times daily and the samples analyzed for cell growth, xylose glucose and ethanol.
(§1) Xylose and glucose concentrations of each sample were measured as follows: 2 mL of the broth were centrifuged at 14,000 rpm for 3 min to remove cells and the supernatant filtered through a 0.2 μm syringe filter. 10× dilutions of the supernatant were prepared in 5 mM sulfuric acid solution. Dilutions were analyzed via HPLC using an Agilent 1100 Series HPLC stem equipped with an 1100 Series Autosampler and Pumping System and Chemstation control software. A Varian MetaCarb 87H column maintained at 50° C. was used for separation. The eluant was a 5 mM aqueous sulfuric acid solution with a flow rate of 0.600 mL/min. Glucose, ethanol, xylose and xylitol were quantified using an Agilent 1100 Series Refractive Index Detector. Acetic acid and lactic acid were measured using an Agilent 1200 Series Variable Wavelength Detector.
[…] The yeast slurry was treated with chlorine dioxide at 50 ppm, 300 ppm and 500 ppm. The yeast slurry was used to re-inoculate fermentors containing 10 L of Sc Fermentation Medium run in batch mode at a starting yeast concentration targeted at 22.5 g/L yeast, as described in Example 2a. The culture was sampled three times daily and the samples analyzed for xylose, lactic acid and ethanol as described in Example 2a.

[4] = test system: bacterially contaminated Candida tropicalis culture; test: Batch fermentation of xylose to xylitol inoculated with chlorine dioxide-treated, recycled yeast slurry; assay type: cell-based; details: yeast slurry treated with 100 ppm at room temperature (FIG. 5)
Experimental: as §1
C. tropicalis cells from a frozen glycerol stock used to inoculate 2 L of Ct Inoculation Medium. The inoculum was grown with shaking at 160 rpm for 24 h at 30° C. The cells were harvested by centrifugation and the entire cell pellet was used to inoculate 2 L of Ct Xylose Medium. This culture was grown with shaking at 160 rpm for 24 h at 30° C. and the broth was used to inoculate 10 L of Ct Fermentation Medium. […] The culture was sampled three times daily and the samples analyzed for cell growth, xylose and xylitol as described in Example 2a. […]

[5] = test system: Lactobacillus strains; details: cited from earlier work
[6] = 200 g/L yeast slurry treated at 300 ppm (FIG. 3B)
[7] = 300 g/L yeast slurry treated at 500 ppm (FIG. 3C)

[O][Cl+][O-] [chlorine dioxide]
impact on yeast viability ([1]; 20 g/L yeast cell suspension, 250 ppm or higher): little to no impact
impact on the viability of the yeast ([1]; 200 g/L yeast suspension): little or no impact
impact on the viability of the yeast ([1]; 300 g/L yeast suspension): little or no impact
chlorine dioxide dosage that effectively suppresses bacterial growth ([2]; 20 g/L yeast cell suspension): ≥ 250 ppm
chlorine dioxide dosage required for effective bacterial decontamination ([2]; 200 g/L yeast suspension): ≥ 500 ppm
chlorine dioxide dosage required for effective bacterial decontamination ([2]; 300 g/L yeast suspension): ≥ 500 ppm
ethanol product produced versus culture from slurry treated with 50 ppm [3, 6]: significantly more
unwanted lactic acid byproduct produced versus culture from slurry treated with 50 ppm [3, 6]: less
ethanol product produced versus culture from slurry treated with 50 ppm [3, 7]: significantly more
unwanted lactic acid byproduct produced versus culture from slurry treated with 50 ppm [3, 7]: less
rate of xylose consumption ([3]; cells treated with the higher chlorine dioxide dosages (300, 500 ppm) vs 50 ppm): significantly faster
xylitol fermentation product produced versus culture inoculated with the untreated slurry [4]: produced more

OO [hydrogen peroxide]
reducing the viability of Lactobacillus ([5]; one of the Lactobacillus species tested): effective

O=S(O)O [sulfite]
susceptibility of bacterial contaminants (two Lactobacillus strains) ([5]; treatment of yeast cells concentrated by filtration): susceptible to sulfite only in the presence of oxygen
